Columns and labels:
PKCγ(h) = molecular target: T1, PKCγ(h) (Homo sapiens, UniProt P05129); experiment: Upstate kinase activity inhibition assay PKCγ(h); assay type: biochemical; details: 40 min; read-out: percentage of enzyme activity that remains
T1 construct: purchased Upstate (KinaseProfiler service)

EphA8(h) = molecular target: T2, EphA8(h) (Homo sapiens, UniProt P29322); experiment: Upstate kinase activity inhibition assay EphA8(h); assay type: biochemical; details: 40 min; read-out: percentage of enzyme activity that remains
T2 construct: purchased Upstate (KinaseProfiler service)

Pim-2(h) = molecular target: T3, Pim-2(h) (Homo sapiens, UniProt Q9P1W9); experiment: Upstate kinase activity inhibition assay Pim-2(h); assay type: biochemical; details: 40 min; read-out: percentage of enzyme activity that remains
T3 construct: purchased Upstate (KinaseProfiler service)

PTK5(h) = molecular target: T4, PTK5(h) (Homo sapiens, UniProt P42685); experiment: Upstate kinase activity inhibition assay PTK5(h); assay type: biochemical; details: 40 min; read-out: percentage of enzyme activity that remains
T4 construct: purchased Upstate (KinaseProfiler service)

CDK3/cyclinE(h) = molecular target: T5, CDK3/cyclinE(h) (Homo sapiens, UniProt Q00526); experiment: Upstate kinase activity inhibition assay CDK3/cyclinE(h); assay type: biochemical; details: 4 μM Compound E
T5 construct: purchased Upstate (KinaseProfiler service)

ITK(h) = ITK(h) (Homo sapiens, UniProt Q08881); experiment: Upstate kinase activity inhibition assay ITK(h); details: 4 μM Compound E
Flt3(D835Y)(h) = Flt3(D835Y)(h) (Homo sapiens, UniProt P36888, D835Y); experiment: Upstate kinase activity inhibition assay Flt3(D835Y)(h); details: 40 min, read-out: percentage of enzyme activity that remains
PKCη(h) = molecular target: T6, PKCη(h) (Homo sapiens, UniProt P24723); experiment: Upstate kinase activity inhibition assay PKCη(h); assay type: biochemical; details: 40 min; read-out: percentage of enzyme activity that remains
T6 construct: purchased Upstate (KinaseProfiler service)

SGK3(h) = SGK3(h) (Homo sapiens, UniProt Q96BR1); experiment: Upstate kinase activity inhibition assay SGK3(h); details: 40 min, read-out: percentage of enzyme activity that remains
NEK3(h) = NEK3(h) (Homo sapiens, UniProt P51956); experiment: Upstate kinase activity inhibition assay NEK3(h); details: 40 min, read-out: percentage of enzyme activity that remains
CDK2/cyclinE(h) = molecular target: T7, CDK2/cyclinE(h) (Homo sapiens, UniProt P24941); experiment: Upstate kinase activity inhibition assay CDK2/cyclinE(h); assay type: biochemical; details: 4 μM Compound E
T7 construct: purchased Upstate (KinaseProfiler service)

TrkA(h) = TrkA(h) (Homo sapiens, UniProt P04629); experiment: Upstate kinase activity inhibition assay TrkA(h); details: 40 min, read-out: percentage of enzyme activity that remains
CDK6/cyclinD3(h) = molecular target: T8, CDK6/cyclinD3(h) (Homo sapiens, UniProt Q00534); experiment: Upstate kinase activity inhibition assay CDK6/cyclinD3(h); assay type: biochemical; details: 40 min; read-out: percentage of enzyme activity that remains
T8 construct: purchased Upstate (KinaseProfiler service)

Met(h) = Met(h) (Homo sapiens, UniProt P08581); experiment: Upstate kinase activity inhibition assay Met(h)
MST3(h) = MST3(h) (Homo sapiens, UniProt Q9Y6E0); experiment: Upstate kinase activity inhibition assay MST3(h)
p70S6K(h) = molecular target: T9, p70S6K(h) (Homo sapiens, UniProt P23443); experiment: Upstate kinase activity inhibition assay p70S6K(h); assay type: biochemical; details: 40 min; read-out: percentage of enzyme activity that remains
T9 construct: purchased Upstate (KinaseProfiler service)

RIPK2(h) = RIPK2(h) (Homo sapiens, UniProt O43353); experiment: Upstate kinase activity inhibition assay RIPK2(h); details: 40 min, read-out: percentage of enzyme activity that remains
Ron(h) = molecular target: T10, Ron(h) (Homo sapiens, UniProt Q04912); experiment: Upstate kinase activity inhibition assay Ron(h); assay type: biochemical; details: 40 min; read-out: percentage of enzyme activity that remains
T10 construct: purchased Upstate (KinaseProfiler service)

PKG1β(h) = molecular target: T11, PKG1β(h) (Homo sapiens, UniProt Q13976); experiment: Upstate kinase activity inhibition assay PKG1β(h); assay type: biochemical; details: 40 min; read-out: percentage of enzyme activity that remains
T11 construct: purchased Upstate (KinaseProfiler service)

TAK1(h) = TAK1(h) (Homo sapiens, UniProt O43318); experiment: Upstate kinase activity inhibition assay TAK1(h); details: 40 min, read-out: percentage of enzyme activity that remains
Hck(h) = molecular target: T12, Hck(h) (Homo sapiens, UniProt P08631); experiment: Upstate kinase activity inhibition assay Hck(h); assay type: biochemical; details: 40 min; read-out: percentage of enzyme activity that remains
T12 construct: purchased Upstate (KinaseProfiler service)

SAPK2a(h) = SAPK2a(h) (Homo sapiens, UniProt Q16539); experiment: Upstate kinase activity inhibition assay SAPK2a(h)
PKCε(h) = molecular target: T13, PKCε(h) (Homo sapiens, UniProt Q02156); experiment: Upstate kinase activity inhibition assay PKCε(h); assay type: biochemical; details: 40 min; read-out: percentage of enzyme activity that remains
T13 construct: purchased Upstate (KinaseProfiler service)

c-RAF(h) = molecular target: T14, c-RAF(h) (Homo sapiens, UniProt P04049, Y340D/Y341D); experiment: Upstate kinase activity inhibition assay c-RAF(h); assay type: biochemical; details: 40 min; read-out: percentage of enzyme activity that remains
T14 construct: purchased Upstate (KinaseProfiler service)

PrKX(h) = molecular target: T15, PrKX(h) (Homo sapiens, UniProt P51817); experiment: Upstate kinase activity inhibition assay PrKX(h); assay type: biochemical; details: 40 min; read-out: percentage of enzyme activity that remains
T15 construct: purchased Upstate (KinaseProfiler service)

CHK2(h) = CHK2(h) (Homo sapiens, UniProt O96017); experiment: Upstate kinase activity inhibition assay CHK2(h); details: 40 min, read-out: percentage of enzyme activity that remains
PKCβII(h) = molecular target: T16, PKCβII(h) (Homo sapiens, UniProt P05771); experiment: Upstate kinase activity inhibition assay PKCβII(h); assay type: biochemical; details: 40 min; read-out: percentage of enzyme activity that remains
T16 construct: purchased Upstate (KinaseProfiler service)

LIMK1(h) = molecular target: T17, LIMK1(h) (Homo sapiens, UniProt P53667); experiment: Upstate kinase activity inhibition assay LIMK1(h); assay type: biochemical; details: 40 min; read-out: percentage of enzyme activity that remains
T17 construct: purchased Upstate (KinaseProfiler service)

JAK3(h) = JAK3(h) (Homo sapiens, UniProt P52333); experiment: Upstate kinase activity inhibition assay JAK3(h); details: 40 min, read-out: percentage of enzyme activity that remains
KDR(h) = KDR(h) (Homo sapiens, UniProt P35968); experiment: Upstate kinase activity inhibition assay KDR(h); details: 40 min, read-out: percentage of enzyme activity that remains

Chain of NEK3(h) (P51956 whole entry): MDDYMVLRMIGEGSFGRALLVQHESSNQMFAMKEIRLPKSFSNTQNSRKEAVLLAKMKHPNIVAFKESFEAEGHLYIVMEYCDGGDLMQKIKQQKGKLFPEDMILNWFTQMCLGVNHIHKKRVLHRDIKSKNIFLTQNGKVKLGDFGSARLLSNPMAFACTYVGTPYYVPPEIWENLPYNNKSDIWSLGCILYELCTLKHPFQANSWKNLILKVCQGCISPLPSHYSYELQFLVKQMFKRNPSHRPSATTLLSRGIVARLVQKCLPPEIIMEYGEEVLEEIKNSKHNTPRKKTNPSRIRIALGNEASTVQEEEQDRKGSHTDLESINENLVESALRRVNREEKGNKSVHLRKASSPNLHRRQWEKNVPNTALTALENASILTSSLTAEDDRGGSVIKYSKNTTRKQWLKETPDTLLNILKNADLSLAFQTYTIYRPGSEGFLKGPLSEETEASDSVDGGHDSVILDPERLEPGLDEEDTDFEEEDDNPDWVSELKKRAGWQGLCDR
T17 sequence (P53667 whole entry): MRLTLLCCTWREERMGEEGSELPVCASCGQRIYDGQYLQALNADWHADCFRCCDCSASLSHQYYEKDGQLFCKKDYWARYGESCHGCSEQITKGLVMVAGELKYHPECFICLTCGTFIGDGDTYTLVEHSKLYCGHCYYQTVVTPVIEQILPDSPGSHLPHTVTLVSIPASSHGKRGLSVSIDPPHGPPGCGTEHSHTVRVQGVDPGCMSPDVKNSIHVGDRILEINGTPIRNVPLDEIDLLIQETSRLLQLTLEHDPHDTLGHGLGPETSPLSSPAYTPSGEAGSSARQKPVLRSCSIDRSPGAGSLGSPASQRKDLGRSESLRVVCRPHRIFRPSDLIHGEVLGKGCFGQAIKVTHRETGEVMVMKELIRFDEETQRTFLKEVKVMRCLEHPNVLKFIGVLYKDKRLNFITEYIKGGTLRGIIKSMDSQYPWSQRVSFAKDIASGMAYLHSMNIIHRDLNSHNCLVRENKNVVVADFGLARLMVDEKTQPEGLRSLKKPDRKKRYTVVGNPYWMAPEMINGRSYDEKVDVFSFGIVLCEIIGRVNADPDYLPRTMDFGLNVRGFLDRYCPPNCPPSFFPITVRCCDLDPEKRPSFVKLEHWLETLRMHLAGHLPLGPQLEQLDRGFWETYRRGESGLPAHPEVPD
T4 sequence (P42685 whole entry): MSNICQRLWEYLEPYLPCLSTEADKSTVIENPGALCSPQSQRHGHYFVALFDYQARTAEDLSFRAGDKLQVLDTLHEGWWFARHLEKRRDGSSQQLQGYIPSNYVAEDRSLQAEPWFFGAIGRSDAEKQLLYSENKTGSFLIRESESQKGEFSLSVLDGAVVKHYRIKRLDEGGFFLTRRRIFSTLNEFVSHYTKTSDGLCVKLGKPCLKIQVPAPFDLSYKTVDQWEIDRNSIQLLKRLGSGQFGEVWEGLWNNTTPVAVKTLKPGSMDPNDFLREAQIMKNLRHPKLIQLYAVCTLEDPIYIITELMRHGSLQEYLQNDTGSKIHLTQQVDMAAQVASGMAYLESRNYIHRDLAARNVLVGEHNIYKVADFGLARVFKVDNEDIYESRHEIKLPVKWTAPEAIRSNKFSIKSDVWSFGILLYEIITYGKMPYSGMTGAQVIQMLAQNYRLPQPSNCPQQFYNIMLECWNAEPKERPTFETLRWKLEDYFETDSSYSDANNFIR
Chain of Met(h) (P08581 25-1390): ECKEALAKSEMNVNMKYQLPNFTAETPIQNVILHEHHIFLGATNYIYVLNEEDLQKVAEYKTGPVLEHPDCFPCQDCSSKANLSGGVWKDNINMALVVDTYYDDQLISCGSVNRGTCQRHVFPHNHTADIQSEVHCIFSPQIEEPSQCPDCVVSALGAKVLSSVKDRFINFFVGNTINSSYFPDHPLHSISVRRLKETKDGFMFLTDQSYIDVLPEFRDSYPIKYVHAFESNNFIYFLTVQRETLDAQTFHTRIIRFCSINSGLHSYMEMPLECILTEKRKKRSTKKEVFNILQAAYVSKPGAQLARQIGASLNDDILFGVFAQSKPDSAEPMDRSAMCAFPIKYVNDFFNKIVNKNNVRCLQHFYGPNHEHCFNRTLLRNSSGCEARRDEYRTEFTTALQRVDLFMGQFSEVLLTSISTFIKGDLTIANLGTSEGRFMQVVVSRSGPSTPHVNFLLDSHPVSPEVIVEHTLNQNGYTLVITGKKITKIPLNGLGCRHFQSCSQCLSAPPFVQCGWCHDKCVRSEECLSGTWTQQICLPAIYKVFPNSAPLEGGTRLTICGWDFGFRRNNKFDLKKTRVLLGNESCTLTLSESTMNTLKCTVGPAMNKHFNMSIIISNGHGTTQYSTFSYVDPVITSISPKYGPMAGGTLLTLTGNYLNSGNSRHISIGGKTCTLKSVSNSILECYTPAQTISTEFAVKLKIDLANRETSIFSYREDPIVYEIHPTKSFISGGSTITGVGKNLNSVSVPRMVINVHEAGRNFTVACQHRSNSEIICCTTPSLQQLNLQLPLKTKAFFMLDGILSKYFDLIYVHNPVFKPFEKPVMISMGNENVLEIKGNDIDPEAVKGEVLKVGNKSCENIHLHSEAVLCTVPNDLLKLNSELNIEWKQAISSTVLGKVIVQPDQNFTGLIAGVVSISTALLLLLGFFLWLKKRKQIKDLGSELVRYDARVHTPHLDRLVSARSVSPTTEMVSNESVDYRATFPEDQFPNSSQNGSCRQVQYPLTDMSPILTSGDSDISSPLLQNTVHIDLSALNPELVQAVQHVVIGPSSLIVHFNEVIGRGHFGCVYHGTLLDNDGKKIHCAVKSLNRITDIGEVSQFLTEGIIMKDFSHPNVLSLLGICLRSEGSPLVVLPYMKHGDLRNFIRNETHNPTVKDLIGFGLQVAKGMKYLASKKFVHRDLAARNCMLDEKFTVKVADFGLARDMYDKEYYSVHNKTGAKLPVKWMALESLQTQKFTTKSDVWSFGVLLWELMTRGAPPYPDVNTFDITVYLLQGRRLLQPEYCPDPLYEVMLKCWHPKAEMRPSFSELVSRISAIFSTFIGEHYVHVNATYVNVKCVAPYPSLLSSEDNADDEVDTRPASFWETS
T13 sequence (Q02156 whole entry): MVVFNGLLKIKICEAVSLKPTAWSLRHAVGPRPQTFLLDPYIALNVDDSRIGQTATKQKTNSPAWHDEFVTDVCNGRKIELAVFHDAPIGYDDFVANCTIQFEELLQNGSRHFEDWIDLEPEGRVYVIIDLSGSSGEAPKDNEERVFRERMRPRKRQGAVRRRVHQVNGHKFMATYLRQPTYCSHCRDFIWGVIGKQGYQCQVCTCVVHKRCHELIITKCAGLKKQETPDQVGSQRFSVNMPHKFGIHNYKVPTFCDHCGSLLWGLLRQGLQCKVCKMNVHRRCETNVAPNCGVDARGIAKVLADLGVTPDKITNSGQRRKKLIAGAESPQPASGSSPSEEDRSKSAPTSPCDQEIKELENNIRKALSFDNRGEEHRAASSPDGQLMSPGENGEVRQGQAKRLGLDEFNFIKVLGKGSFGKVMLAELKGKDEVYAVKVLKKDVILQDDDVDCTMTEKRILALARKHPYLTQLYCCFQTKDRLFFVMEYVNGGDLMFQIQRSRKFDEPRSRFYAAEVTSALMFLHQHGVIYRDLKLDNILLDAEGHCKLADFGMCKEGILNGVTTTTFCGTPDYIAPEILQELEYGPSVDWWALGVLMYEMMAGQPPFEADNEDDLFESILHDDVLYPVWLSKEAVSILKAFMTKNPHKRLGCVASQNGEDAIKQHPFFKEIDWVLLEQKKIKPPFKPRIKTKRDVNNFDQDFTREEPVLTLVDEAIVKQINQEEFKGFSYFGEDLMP
Chain of SGK3(h) (Q96BR1 whole entry): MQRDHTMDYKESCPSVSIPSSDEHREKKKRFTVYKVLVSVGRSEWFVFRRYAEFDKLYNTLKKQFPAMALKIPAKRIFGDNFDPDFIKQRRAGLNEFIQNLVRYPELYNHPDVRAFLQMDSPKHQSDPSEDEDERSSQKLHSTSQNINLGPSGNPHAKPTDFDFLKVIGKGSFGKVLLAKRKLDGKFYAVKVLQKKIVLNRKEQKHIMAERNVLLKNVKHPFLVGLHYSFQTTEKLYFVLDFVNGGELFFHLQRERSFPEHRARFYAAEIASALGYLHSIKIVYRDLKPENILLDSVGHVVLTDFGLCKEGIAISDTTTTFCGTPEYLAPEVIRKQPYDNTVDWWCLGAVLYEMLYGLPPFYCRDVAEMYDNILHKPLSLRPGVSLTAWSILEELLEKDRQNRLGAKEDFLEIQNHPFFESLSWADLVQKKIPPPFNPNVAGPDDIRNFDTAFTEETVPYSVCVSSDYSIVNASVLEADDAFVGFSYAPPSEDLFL

In the case of `Cc1cc(Nc2cc(N3CCN(C)CC3)nc(Sc3ccc(NC(=O)C4CC4)cc3)n2)n[nH]1` [Compound E, Cyclopropane carboxylic acid {4-[4-(4-methyl-piperazin-1-yl)-6-(5-methyl-2H-pyrazol-3-ylamino)-pyrimidin-2-ylsulphanyl]-phenyl}-amide], the remaining activity at 0.2 µM (PKCγ(h)) is reported as 96%, the remaining activity at 4 µM (PKCγ(h)) is reported as 82% and the remaining activity at 0.2 µM (EphA8(h)) is reported as 92%. For the same compound, the remaining activity at 0.2 µM (Pim-2(h)) was 110%, the remaining activity at 4 µM (Pim-2(h)) was 124% and the remaining activity at 0.2 µM (PTK5(h)) was 97%. For the same compound, the remaining activity at 4 µM (PTK5(h)) was 54%, the “percentage of enzyme activity that remains” value (CDK3/cyclinE(h)) was 97% and the “percentage of enzyme activity that remains” value (ITK(h)) was 12%. It also gave a remaining activity at 0.2 µM (Flt3(D835Y)(h)) of 50%, a remaining activity at 4 µM (Flt3(D835Y)(h)) of 7% and a remaining activity at 0.2 µM (PKCη(h)) of 98%. It also gave a remaining activity at 4 µM (PKCη(h)) of 100%, a remaining activity at 0.2 µM (SGK3(h)) of 103% and a remaining activity at 4 µM (SGK3(h)) of 87%. The remaining activity at 0.2 µM (NEK3(h)) was 102%, the remaining activity at 4 µM (NEK3(h)) was 125% and the “percentage of enzyme activity that remains” value (CDK2/cyclinE(h)) was 125%. The remaining activity at 0.2 µM (TrkA(h)) was 98%, the remaining activity at 4 µM (TrkA(h)) was 8% and the remaining activity at 0.2 µM (CDK6/cyclinD3(h)) was 103%. The remaining activity at 4 µM (CDK6/cyclinD3(h)) was 97%, the “percentage of enzyme activity that remains” value (Met(h); 0.2 μM Compound E) was 105% and the “percentage of enzyme activity that remains” value (Met(h); 4 μM Compound E) was 50%. The “percentage of enzyme activity that remains” value (MST3(h); 0.2 μM Compound E) was 97%, the “percentage of enzyme activity that remains” value (MST3(h); 4 μM Compound E) was 140% and the remaining activity at 4 µM (p70S6K(h)) was 92%. For the same compound, the remaining activity at 0.2 µM (RIPK2(h)) was 107%, the remaining activity at 4 µM (RIPK2(h)) was 105% and the remaining activity at 0.2 µM (Ron(h)) was 95%. For the same compound, the remaining activity at 4 µM (Ron(h)) was 48%, the remaining activity at 0.2 µM (PKG1β(h)) was 87% and the remaining activity at 4 µM (PKG1β(h)) was 87%. For the same compound, the remaining activity at 0.2 µM (TAK1(h)) was 99%, the remaining activity at 4 µM (TAK1(h)) was 66% and the remaining activity at 0.2 µM (Hck(h)) was 98%. The remaining activity at 4 µM (Hck(h)) was 45%, the “percentage of enzyme activity that remains” value (SAPK2a(h); 0.2 μM Compound E) was 116% and the “percentage of enzyme activity that remains” value (SAPK2a(h); 4 μM Compound E) was 123%. It also gave a remaining activity at 0.2 µM (PKCε(h)) of 98%, a remaining activity at 4 µM (PKCε(h)) of 96% and a remaining activity at 0.2 µM (c-RAF(h)) of 106%. The remaining activity at 4 µM (c-RAF(h)) was 100%, the remaining activity at 0.2 µM (PrKX(h)) was 97% and the remaining activity at 4 µM (PrKX(h)) was 96%. For the same compound, the remaining activity at 0.2 µM (CHK2(h)) was 99%, the remaining activity at 4 µM (CHK2(h)) was 89% and the remaining activity at 0.2 µM (PKCβII(h)) was 99%. It also gave a remaining activity at 4 µM (PKCβII(h)) of 94%, a remaining activity at 0.2 µM (LIMK1(h)) of 71% and a remaining activity at 4 µM (LIMK1(h)) of 15%. It also gave a remaining activity at 0.2 µM (JAK3(h)) of 107%, a remaining activity at 4 µM (JAK3(h)) of 105% and a remaining activity at 0.2 µM (KDR(h)) of 87%. It also gave a remaining activity at 4 µM (KDR(h)) of 20%.
